Laboratory results as given in patent EP2641901A1, “Novel microbiocides” (Syngenta Participations AG, priority 2012, dated 2013).

Legend:
[1] = system: Blumeria graminis f. sp. tritici; experiment: Blumeria graminis f. sp. tritici / wheat / leaf disc preventative (Powdery mildew on wheat); type: in vivo; conditions: 200ppm, wheat leaf segments cv. Kanzler, inoculated 1 day after application, percent disease control compared to untreated, 6 - 8 days after application
Protocol: Blumeria graminis f. sp. tritici (Erysiphe graminis f. sp. tritici) / wheat / leaf disc preventative (Powdery mildew on wheat): Wheat leaf segments cv. Kanzler were placed on agar in a 24-well plate and sprayed with the formulated test compound diluted in water at an application rate of 200ppm. The leaf disks were inoculated by shaking powdery mildew infected plants above the test plates 1 day after application. The inoculated leaf disks were incubated at 20°C and 60% relative humidity under a light regime of 24 h darkness followed by 12h/12h (dark/light) in a climate chamber and the activity of a compound was assessed as percent disease control compared to untreated when an appropriate level of disease damage appears on untreated check leaf segments (6 - 8 days after application). […] P.01, P.02

[2] = system: Pyrenophora teres; experiment: Pyrenophora teres / barley / leaf disc preventative (Net blotch); type: in vivo; conditions: 200ppm, barley leaf segments cv Hasso, inoculated two days after application, disease control compared to untreated, 5 - 7 days after application
Protocol: Pyrenophora teres / barley / leaf disc preventative (Net blotch): Barley leaf segments cv Hasso were placed on agar in a 24-well plate and sprayed with formulated test compound diluted in water at an application rate of 200ppm. The leaf segments were inoculated with a spore suspension of the fungus two days after application of the test solution. The inoculated leaf segments were incubated at 20°C and 65% relative humidity under a light regime of 12/12 h (light/dark) in a climate cabinet and the activity of a compound was assessed as disease control compared to untreated when an appropriate level of disease damage appears in untreated check leaf segments (5 - 7 days after application). […] P.01, P.02

[3] = system: Thanatephorus cucumeris; experiment: Thanatephorus cucumeris (Rhizoctonia solani) / liquid culture (foot rot, damping-off); type: cell-based; conditions: 200ppm; liquid culture (PDB potato dextrose broth), 24°C; inhibition of growth determined photometrically 3-4 days after application
Protocol: Thanatephorus cucumeris (Rhizoctonia solani) / liquid culture (foot rot, damping-off): Mycelia fragments of a newly grown liquid culture of the fungus were directly mixed into nutrient broth (PDB potato dextrose broth). After placing a DMSO solution of the test compounds into a 96-well microtiter plate at an application rate of 200ppm, the nutrient broth containing the fungal material was added. The test plates were incubated at 24°C and the inhibition of growth was determined photometrically 3-4 days after application. […] P.01, P.02

[4] = system: Magnaporthe grisea; type: in vivo; conditions: 200ppm; rice leaf segments cv. Ballila, preventative, inoculated 2 days after application; percent disease control compared to untreated, 5 - 7 days after application
[5] = system: Puccinia recondita f. sp. tritici; experiment: Puccinia recondita f. sp. tritici / wheat / leaf disc curative (Brown rust); type: in vivo; conditions: 200ppm, wheat leaf segments cv Kanzler, applied 1 day after inoculation, percent disease control compared to untreated, 6 - 8 days after application
Protocol: Puccinia recondita f. sp. tritici / wheat / leaf disc curative (Brown rust): Wheat leaf segments cv Kanzler were placed on agar in 24-well plates. The leaf segments were inoculated with a spore suspension of the fungus. The plates were stored in darkness at 19°C and 75% relative humidity. The formulated test compound diluted in water was applied at an application rate of 200ppm 1 day after inoculation. The leaf segments were incubated at 19°C and 75% relative humidity under a light regime of 12/12 h (light/dark) in a climate cabinet and the activity of a compound was assessed as percent disease control compared to untreated when an appropriate level of disease damage appears in untreated check leaf segments (6 - 8 days after application). […] P.01, P.02

[6] = system: Mycosphaerella graminicola; experiment: Mycosphaerella graminicola (Septoria tritici) / liquid culture (Septoria blotch); type: cell-based; conditions: 200ppm; liquid culture (PDB potato dextrose broth), 24°C; inhibition of growth determined photometrically 4-5 days after application
Protocol: Mycosphaerella graminicola (Septoria tritici) / liquid culture (Septoria blotch): Conidia of the fungus from cryogenic storage were directly mixed into nutrient broth (PDB potato dextrose broth). After placing a DMSO solution of test compound into a 96-well microtiter plate at an application rate of 200ppm, the nutrient broth containing the fungal spores was added. The test plates were incubated at 24°C and the inhibition of growth was determined photometrically 4-5 days after application. […] P.01, P.02

[7] = system: Mycosphaerella arachidis; experiment: Mycosphaerella arachidis (Cercospora arachidicola) / liquid culture (early leaf spot); type: cell-based; conditions: 200ppm; liquid culture (PDB potato dextrose broth), 24°C; inhibition of growth determined photometrically 4-5 days after application
Protocol: Mycosphaerella arachidis (Cercospora arachidicola) / liquid culture (early leaf spot): Conidia of the fungus from cryogenic storage were directly mixed into nutrient broth (PDB potato dextrose broth). After placing a DMSO solution of test compound into a 96-well microtiter plate at an application rate of 200ppm, the nutrient broth containing the fungal spores was added. The test plates were incubated at 24°C and the inhibition of growth was determined photometrically 4-5 days after application. […] P.01, P.02

[8] = system: Puccinia recondita f. sp. tritici; experiment: Puccinia recondita f. sp. tritici / wheat / leaf disc preventative (Brown rust); type: in vivo; conditions: 200ppm, wheat leaf segments cv Kanzler, inoculated 1 day after application, percent disease control compared to untreated, 7 - 9 days after application
Protocol: Puccinia recondita f. sp. tritici l wheat / leaf disc preventative (Brown rust): Wheat leaf segments cultivated variety (cv) Kanzler were placed on agar in 24-well plates and sprayed with formulated test compound diluted in water at an application rate of 200ppm. The leaf disks were inoculated with a spore suspension of the fungus 1 day after application. The inoculated leaf segments were incubated at 19°C and 75% relative humidity under a light regime of 12/12 h (light/dark) in a climate cabinet and the activity of a compound was assessed as percent disease control compared to untreated when an appropriate level of disease damage appears in untreated check leaf segments (7 - 9 days after application). […] P.01, P.02

[9] = system: Pythium ultimum; experiment: Pythium ultimum / liquid culture (seedling damping off); type: cell-based; conditions: 200ppm; liquid culture (potato dextrose broth), 24°C; inhibition of growth determined photometrically 2-3 days after application
Protocol: Pythium ultimum / liquid culture (seedling damping off) Mycelia fragments and oospores of a newly grown liquid culture of the fungus were directly mixed into nutrient broth (potato dextrose broth). After placing a DMSO solution of test compound into a 96-well format microtiter plate at an application rate of 200ppm, the nutrient broth containing the fungal mycelia/spore mixture was added. The test plates were incubated at 24°C and the inhibition of growth was determined photometrically 2-3 days after application. […] P.01, P.02

[10] = system: Monographella nivalis; experiment: Monographella nivalis (Microdochium nivale) / liquid culture (foot rot cereals); type: cell-based; conditions: 200ppm; liquid culture (PDB potato dextrose broth), 24°C; inhibition of growth determined photometrically 4-5 days after application
Protocol: Monographella nivalis (Microdochium nivale) / liquid culture (foot rot cereals): Conidia of the fungus from cryogenic storage were directly mixed into nutrient broth (PDB potato dextrose broth). After placing a DMSO solution of test compound into a 96-well microtiter plate at an application rate of 200ppm, the nutrient broth containing the fungal spores was added. The test plates were incubated at 24°C and the inhibition of growth was determined photometrically 4-5 days after application. […] P.01, P.02

[11] = system: Botryotinia fuckeliana; experiment: Botryotinia fuckeliana (Botrytis cinerea) / liquid culture (Gray mould); type: cell-based; conditions: 200ppm; liquid culture (Vogels broth), 24°C; inhibition of growth determined photometrically 3-4 days after application
Protocol: Botryotinia fuckeliana (Botrytis cinerea) / liquid culture (Gray mould): Conidia of the fungus from cryogenic storage were directly mixed into nutrient broth (Vogels broth). After placing a DMSO solution of test compound into a 96-well microtiter plate at an application rate of 200ppm, the nutrient broth containing the fungal spores was added. The test plates were incubated at 24°C and the inhibition of growth was determined photometrically 3-4 days after application. […] P.01, P.02

[12] = system: Phaeosphaeria nodorum; experiment: Phaeosphaeria nodorum / wheat / leaf disc preventative (Glume blotch); type: in vivo; conditions: 200ppm, wheat leaf segments cv Kanzler, inoculated 2 days after application, percent disease control compared to untreated, 5 - 7 days after application
Protocol: Phaeosphaeria nodorum (Septorla nodorum) / wheat / leaf disc preventative (Glume blotch): Wheat leaf segments cv Kanzler were placed on agar in a 24-well plate and sprayed with formulated test compound diluted in water at an application rate of 200ppm. The leaf disks were inoculated with a spore suspension of the fungus 2 days after application. The inoculated test leaf disks were incubated at 20°C and 75% relative humidity under a light regime of 12/12 h (light/dark) in a climate cabinet and the activity of a compound was assessed as percent disease control compared to untreated when an appropriate level of disease damage appears in untreated check leaf disks (5 - 7 days after application). […] P.01, P.02

[13] = system: Glomerella lagenarium; experiment: Glomerella lagenarium (Colletotrichum lagenarium) / liquid culture (Anthracnose); type: cell-based; conditions: 200ppm; liquid culture (PDB potato dextrose broth), 24°C; inhibition of growth measured photometrically 3-4 days after application
Protocol: Glomerella lagenarium (Colletotrichum lagenarium) / liquid culture (Anthracnose) : Conidia of the fungus from cryogenic storage were directly mixed into nutrient broth (PDB potato dextrose broth). After placing a DMSO solution of test compound into a 96-well microtiter plate at an application rate of 200ppm, the nutrient broth containing the fungal spores was added. The test plates were incubated at 24°C and the inhibition of growth was measured photometrically 3-4 days after application. […] P.01, P.02

CO/N=C1\CCCc2ccc(CCCO/N=C(\C)c3cccc(C)n3)nc21 [P.02]
at least 80%: control of Blumeria graminis [1] | control of Pyrenophora teres [2] | control of Thanatephorus cucumeris [3] | control of Magnaporthe grisea [4] | control of Puccinia recondita f. sp. tritici [5] | control of Mycosphaerella graminicola [6] | control of Mycosphaerella arachidis [7] | control of Puccinia recondita f. sp. tritici [8] | control of Pythium ultimum [9] | control of Monographella nivalis [10] | control of Botryotinia fuckeliana [11] | control of Phaeosphaeria nodorum [12] | control of Glomerella lagenarium [13]
